According to publication PMC5675120 (Nature chemical biology, 2017):
Where no end group is shown, it is not given here. The star is where a group is joined. FITC = O=C1OC2(c3ccc(O)cc3Oc3cc(O)ccc32)c2ccc(NC(=S)*)cc21

Tests used:
[1] = biological target: BAX (Homo sapiens, UniProt Q07812); assay: STD NMR; assay type: binding
[2] = biological target: T1, BCL-2-associated X protein (BAX), recombinant, full-length, monomeric (human, UniProt Q07812 1-192); assay: competition STD NMR
[3] = biological target: T1, BCL-2-associated X protein (BAX), …; assay: fluorescence polarisation

Sequence of BAX (Q07812 whole entry): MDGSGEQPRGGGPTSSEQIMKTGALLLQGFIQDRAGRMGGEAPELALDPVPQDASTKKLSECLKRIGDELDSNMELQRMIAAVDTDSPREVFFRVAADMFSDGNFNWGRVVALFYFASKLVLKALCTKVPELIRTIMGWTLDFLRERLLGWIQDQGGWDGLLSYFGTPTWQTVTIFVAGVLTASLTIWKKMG
T1 sequence (Q07812 whole entry): as above

| Molecule | STD NMR; liposomal release sensitization [1] | other results |
| --- | --- | --- |
| Oc1cccc(Oc2ccccc2)c1 [compound 2, 3-phenoxyphenol] | all retain BAX-binding activity as assessed by STD NMR, and demonstrate BAX-sensitization activity | – |
| Oc1ccc(Cc2ccccc2)cc1 [compound 3, 4-benzylphenol] | all retain BAX-binding activity as assessed by STD NMR, and demonstrate BAX-sensitization activity | – |
| Nc1ccc(Oc2ccccc2)cc1 [compound 4, 4-phenoxyaniline] | all retain BAX-binding activity as assessed by STD NMR, and demonstrate BAX-sensitization activity | – |
| EALKKALRRHRFLWQRRQRA [vMIA peptide (aa 131-150), as used in competition STD NMR] | – | binding result [2]: binds |
| {FITC}-EALKKALRRHRFLWQRRQRA [FITC-vMIA peptide (aa 131-150)] | – | binding result [3]: binds |
